Data: PubChem BioAssay (NCI)
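Here, GI50 denotes the concentration required for 50% inhibition of growth. TGI: concentration producing complete growth inhibition.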

Columns and labels:
Assay in all cases: growth of human tumour cells (NCI), 384-well format
[1] = tested on: HCT-116 colon
[2] = tested on: UACC-62 melanoma
[3] = tested on: DU-145 prostate
[4] = tested on: NCI/ADR-RES ovarian
[5] = tested on: EKVX NSCLC
[6] = tested on: MDA-MB-468 breast
[7] = tested on: SW-620 colon
[8] = tested on: IGROV1 ovarian
[9] = tested on: UO-31 renal
[10] = tested on: SF-295 CNS
[11] = tested on: SK-OV-3 ovarian
[12] = tested on: NCI-H226 lung
[13] = tested on: PC-3 prostate
[14] = tested on: K-562 leukemia
[15] = tested on: HS 578T breast
[16] = tested on: M14 melanoma
[17] = tested on: KM12 colon
[18] = tested on: NCI-H460 NSCLC
[19] = tested on: SR leukemia
[20] = tested on: LOX IMVI melanoma
[21] = tested on: HT29 colon
[22] = tested on: A498 renal
[23] = tested on: MDA-MB-435 melanoma
[24] = tested on: NCI-H322M lung
[25] = tested on: MDA-MB-231 breast
[26] = tested on: OVCAR-8 ovarian
[27] = tested on: UACC-257 melanoma
[28] = tested on: COLO 205 colon
[29] = tested on: 786-0 renal
[30] = tested on: CAKI-1 renal
[31] = tested on: HCC-2998 colon
[32] = tested on: NCI-H522 lung
[33] = tested on: TK-10 renal
[34] = tested on: A549 NSCLC
[35] = tested on: HL-60(TB) leukemia
[36] = tested on: CCRF-CEM leukemia
[37] = tested on: HCT-15 colon
[38] = tested on: BT-549 breast
[39] = tested on: SF-268 CNS
[40] = tested on: SN12C renal
[41] = tested on: T-47D breast
[42] = tested on: ACHN renal
[43] = tested on: RXF 393 renal
[44] = tested on: SK-MEL-5 melanoma
[45] = tested on: HOP-92 NSCLC
[46] = tested on: SF-539 CNS
[47] = tested on: RPMI-8226 leukemia
[48] = tested on: HOP-62 NSCLC
[49] = tested on: SK-MEL-28 melanoma
[50] = tested on: OVCAR-4 ovarian
[51] = tested on: U251 glioblastoma
[52] = tested on: SNB-75 CNS
[53] = tested on: MOLT-4 leukemia
[54] = tested on: MCF7 breast
[55] = tested on: SNB-19 CNS
[56] = tested on: MALME-3M melanoma
[57] = tested on: NCI-H23 lung
[58] = tested on: OVCAR-3 ovarian

CNCCN(C)Cc1cn[nH]c1-c1ccc(OC2CC(OCCC3CCOCC3)C2)cc1 (stereo unspecified)
GI50 [1]: 36.6 µM | TGI [1]: > 100 µM | GI50 [2]: 22 µM | TGI [2]: 66.6 µM | GI50 [3]: > 100 µM | TGI [3]: > 100 µM | GI50 [4]: > 100 µM | TGI [4]: > 100 µM | GI50 [5]: 60.6 µM | TGI [5]: > 100 µM | GI50 [6]: 45.5 µM | TGI [6]: > 100 µM | GI50 [7]: > 100 µM | TGI [7]: > 100 µM | GI50 [8]: 37.1 µM | TGI [8]: > 100 µM | GI50 [9]: 80.2 µM | TGI [9]: > 100 µM | GI50 [10]: 64.5 µM | TGI [10]: > 100 µM | GI50 [11]: > 100 µM | TGI [11]: > 100 µM | GI50 [12]: > 100 µM | TGI [12]: > 100 µM | GI50 [13]: 75.4 µM | TGI [13]: > 100 µM | GI50 [14]: 9.91 µM | TGI [14]: 25 µM | GI50 [15]: > 100 µM | TGI [15]: > 100 µM | GI50 [16]: > 100 µM | TGI [16]: > 100 µM | GI50 [17]: > 100 µM | TGI [17]: > 100 µM | GI50 [18]: 43.8 µM | TGI [18]: > 100 µM | GI50 [19]: 7.14 µM | TGI [19]: 15 µM | GI50 [20]: 32.6 µM | TGI [20]: > 100 µM | GI50 [21]: 24.6 µM | TGI [21]: 71.5 µM | GI50 [22]: 48.9 µM | TGI [22]: > 100 µM | GI50 [23]: > 100 µM | TGI [23]: > 100 µM | GI50 [24]: > 100 µM | TGI [24]: > 100 µM | GI50 [25]: 78.8 µM | TGI [25]: > 100 µM | GI50 [26]: > 100 µM | TGI [26]: > 100 µM | GI50 [27]: 18.9 µM | TGI [27]: 43.3 µM | GI50 [28]: 96.4 µM | TGI [28]: > 100 µM | GI50 [29]: 41.4 µM | TGI [29]: > 100 µM | GI50 [30]: 41.2 µM | TGI [30]: > 100 µM | GI50 [31]: 50.7 µM | TGI [31]: > 100 µM | GI50 [32]: > 100 µM | TGI [32]: > 100 µM | GI50 [33]: 84.5 µM | TGI [33]: > 100 µM | GI50 [34]: 79.6 µM | TGI [34]: > 100 µM | GI50 [35]: 3.26 µM | TGI [35]: 12.4 µM | GI50 [36]: 53.8 µM | TGI [36]: > 100 µM | GI50 [37]: > 100 µM | TGI [37]: > 100 µM | GI50 [38]: 61.4 µM | TGI [38]: > 100 µM | GI50 [39]: 83.6 µM | TGI [39]: > 100 µM | GI50 [40]: 89.2 µM | TGI [40]: > 100 µM | GI50 [41]: 71.2 µM | TGI [41]: > 100 µM | GI50 [42]: 70.9 µM | TGI [42]: > 100 µM | GI50 [43]: 69.8 µM | TGI [43]: > 100 µM | GI50 [44]: 16.1 µM | TGI [44]: > 100 µM | GI50 [45]: 42.5 µM | TGI [45]: > 100 µM | GI50 [46]: 94.4 µM | TGI [46]: > 100 µM | GI50 [47]: 24.5 µM | TGI [47]: > 100 µM | GI50 [48]: 58.3 µM | TGI [48]: > 100 µM | GI50 [49]: 43 µM | TGI [49]: > 100 µM | GI50 [50]: > 100 µM | TGI [50]: > 100 µM | GI50 [51]: 51.8 µM | TGI [51]: > 100 µM | GI50 [52]: > 100 µM | TGI [52]: > 100 µM | GI50 [53]: 36.8 µM | TGI [53]: > 100 µM | GI50 [54]: 51.5 µM | TGI [54]: > 100 µM | GI50 [55]: > 100 µM | TGI [55]: > 100 µM | GI50 [56]: 13.6 µM | TGI [56]: 56.2 µM | GI50 [57]: 40 µM | TGI [57]: > 100 µM | GI50 [58]: 24 µM | TGI [58]: > 100 µM
